Measurements: US20090311217A1, “3-SUBSTITUTED-1H-INDOLE COMPOUNDS, THEIR USE AS MTOR KINASE AND PI3 KINASE INHIBITORS, AND THEIR SYNTHESES” (priority 2008, published 2009)
Read-outs that look alike come from different tables or passages of the source.

Key:
Type in all cases: biochemical
PI3K-alpha = PI3K-alpha (Homo sapiens, UniProt P42336); assay: PI3K-alpha fluorescence polarization assay
PI3K-gamma = PI3K-gamma (Homo sapiens, UniProt P48736); assay: PI3K-gamma fluorescence polarization assay; conditions: PI3Kγ Avg. IC50
How it was run: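 FP displacement read-out: 100 nM GST-GRP1 PH domain plus 5 nM BODIPY-TMR-IP4 added after EDTA stop. Preceding kinase step: 5 ng enzyme, diC8-PI(4,5)P2 2.5 μM, ATP 25 μM, MgCl2 2.5 mM, HEPES 5 mM pH 7, one hour, 25° C.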

human TOR = biological target: T1, human TOR (Homo sapiens, UniProt P42345); assay: mTOR enzyme assay (DELFIA, His6-S6K substrate); conditions: read-out: mTOR Kinase Avg. IC50
T1 construct: FLAG

Sequence of PI3K-gamma (P48736 whole entry, species assumed, the tested form may be a part): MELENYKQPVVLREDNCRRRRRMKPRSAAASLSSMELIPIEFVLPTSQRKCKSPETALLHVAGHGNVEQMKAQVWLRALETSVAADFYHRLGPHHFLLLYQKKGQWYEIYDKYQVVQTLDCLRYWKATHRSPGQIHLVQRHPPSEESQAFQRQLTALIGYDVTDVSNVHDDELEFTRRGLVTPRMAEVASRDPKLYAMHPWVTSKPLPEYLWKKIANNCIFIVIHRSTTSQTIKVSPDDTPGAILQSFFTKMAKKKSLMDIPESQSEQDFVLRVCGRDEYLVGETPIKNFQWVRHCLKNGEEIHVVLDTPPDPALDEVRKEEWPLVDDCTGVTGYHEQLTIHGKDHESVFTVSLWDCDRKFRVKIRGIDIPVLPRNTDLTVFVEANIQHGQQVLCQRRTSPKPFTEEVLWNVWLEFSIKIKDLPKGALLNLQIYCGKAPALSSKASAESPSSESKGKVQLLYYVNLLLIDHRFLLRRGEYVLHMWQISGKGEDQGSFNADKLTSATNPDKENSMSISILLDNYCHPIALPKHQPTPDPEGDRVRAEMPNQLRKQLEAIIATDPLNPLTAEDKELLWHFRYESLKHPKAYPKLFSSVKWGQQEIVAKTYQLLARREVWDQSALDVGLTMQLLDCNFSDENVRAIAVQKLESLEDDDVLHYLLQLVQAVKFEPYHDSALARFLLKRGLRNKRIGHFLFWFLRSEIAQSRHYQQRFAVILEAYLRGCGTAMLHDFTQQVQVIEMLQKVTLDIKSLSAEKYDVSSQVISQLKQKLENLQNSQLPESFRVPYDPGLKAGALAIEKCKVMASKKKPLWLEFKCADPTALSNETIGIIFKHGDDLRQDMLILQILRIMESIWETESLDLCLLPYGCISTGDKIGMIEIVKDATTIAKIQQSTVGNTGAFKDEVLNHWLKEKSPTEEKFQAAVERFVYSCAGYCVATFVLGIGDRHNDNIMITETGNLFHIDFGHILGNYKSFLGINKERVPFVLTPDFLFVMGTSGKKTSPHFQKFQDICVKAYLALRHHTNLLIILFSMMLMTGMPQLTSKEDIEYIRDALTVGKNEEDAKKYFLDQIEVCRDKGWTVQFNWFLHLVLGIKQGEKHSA
Sequence of PI3K-alpha (P42336 whole entry, species assumed): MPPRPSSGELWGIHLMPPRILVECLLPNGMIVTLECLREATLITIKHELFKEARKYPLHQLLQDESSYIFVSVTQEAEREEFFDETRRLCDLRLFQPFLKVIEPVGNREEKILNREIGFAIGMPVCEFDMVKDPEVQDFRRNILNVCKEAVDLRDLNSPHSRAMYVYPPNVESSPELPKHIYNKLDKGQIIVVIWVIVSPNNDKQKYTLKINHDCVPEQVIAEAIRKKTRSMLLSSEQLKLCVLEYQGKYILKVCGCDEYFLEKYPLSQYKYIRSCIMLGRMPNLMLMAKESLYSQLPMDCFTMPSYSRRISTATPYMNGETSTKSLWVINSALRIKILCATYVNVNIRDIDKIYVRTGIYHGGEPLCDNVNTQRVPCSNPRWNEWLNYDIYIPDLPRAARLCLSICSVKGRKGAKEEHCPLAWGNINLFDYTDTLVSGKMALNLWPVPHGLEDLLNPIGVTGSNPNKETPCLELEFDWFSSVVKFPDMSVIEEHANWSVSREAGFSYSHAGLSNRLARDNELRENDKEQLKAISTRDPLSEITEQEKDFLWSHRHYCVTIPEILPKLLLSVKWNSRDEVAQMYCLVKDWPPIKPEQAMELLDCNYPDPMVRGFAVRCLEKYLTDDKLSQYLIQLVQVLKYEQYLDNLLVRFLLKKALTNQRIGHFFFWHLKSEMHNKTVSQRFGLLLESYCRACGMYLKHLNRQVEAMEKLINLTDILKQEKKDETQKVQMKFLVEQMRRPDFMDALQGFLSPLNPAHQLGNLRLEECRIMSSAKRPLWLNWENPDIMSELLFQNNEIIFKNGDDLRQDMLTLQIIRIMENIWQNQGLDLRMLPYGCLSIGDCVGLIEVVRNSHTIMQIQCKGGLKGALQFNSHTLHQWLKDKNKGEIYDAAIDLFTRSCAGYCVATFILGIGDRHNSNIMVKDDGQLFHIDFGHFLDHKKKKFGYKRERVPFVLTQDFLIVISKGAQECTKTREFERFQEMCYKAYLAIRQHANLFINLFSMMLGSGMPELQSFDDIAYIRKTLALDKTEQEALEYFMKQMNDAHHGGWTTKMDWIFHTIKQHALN
Sequence of PI3K-alpha (P27986 whole entry partner, species assumed): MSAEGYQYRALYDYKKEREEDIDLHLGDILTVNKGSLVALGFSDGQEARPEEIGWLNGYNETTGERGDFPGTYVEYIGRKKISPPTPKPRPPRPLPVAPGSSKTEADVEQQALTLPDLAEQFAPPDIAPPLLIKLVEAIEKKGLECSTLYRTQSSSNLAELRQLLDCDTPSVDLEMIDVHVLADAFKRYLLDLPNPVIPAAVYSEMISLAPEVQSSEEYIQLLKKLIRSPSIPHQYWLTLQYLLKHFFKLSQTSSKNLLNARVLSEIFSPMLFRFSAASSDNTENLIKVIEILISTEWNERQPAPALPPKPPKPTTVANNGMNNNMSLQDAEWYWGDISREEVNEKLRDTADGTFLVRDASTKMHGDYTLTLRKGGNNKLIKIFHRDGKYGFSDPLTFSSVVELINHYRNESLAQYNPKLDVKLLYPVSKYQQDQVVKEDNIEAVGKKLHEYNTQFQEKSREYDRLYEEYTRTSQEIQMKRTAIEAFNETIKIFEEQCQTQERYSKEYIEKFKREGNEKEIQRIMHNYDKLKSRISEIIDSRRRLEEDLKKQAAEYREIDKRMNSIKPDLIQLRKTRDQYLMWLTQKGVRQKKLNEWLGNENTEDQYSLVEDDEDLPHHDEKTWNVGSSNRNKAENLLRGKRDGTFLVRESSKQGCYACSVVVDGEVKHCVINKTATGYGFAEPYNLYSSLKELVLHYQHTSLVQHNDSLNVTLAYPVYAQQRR

IC50 (PI3K-alpha; read-out: PI3Kα Avg. IC50) [nM] | IC50 (PI3K-gamma) [nM] | IC50 (human TOR) [nM] | Compound | IC50 (PI3K-alpha; PI3Kα Avg. IC50) [nM]
42 | 351 | 115 | COc1ccc2[nH]c(-c3c(C)nn(C)c3C)c(/C=C3\Oc4ccc(NC(=O)Nc5cccc(C(=O)N(C)CCCN(C)C)c5)cc4C3=O)c2c1 [Compound 708, N-[3-(dimethylamino)propyl]-3-({[(2Z)-2-{[5-methoxy-2-(1,3,5-trimethyl-1H-pyrazol-4-yl)-1H-indol-3-yl]methylidene}-3-oxo-2,3-dihydro-1-benzofuran-5-yl]carbamoyl}amino)-N-methylbenzamide] | –
14 | 70.5 | 45 | CNC(=O)Nc1ccc2c(c1)C(=O)/C(=C/c1c(-c3c(C)nn(C)c3C)[nH]c3c(F)c(F)c(OC)cc13)O2 [Compound 713, 1-[(2Z)-2-{[6,7-difluoro-5-methoxy-2-(1,3,5-trimethyl-1H-pyrazol-4-yl)-1H-indol-3-yl]methylidene}-3-oxo-2,3-dihydro-1-benzofuran-5-yl]-3-methylurea] | –
2.65 | 8 | 7 | CNC(=O)Nc1ccc2c(c1)C(=O)/C(=C/c1c(-c3cnn(CC(C)C)c3)[nH]c3c(F)cc(OC)cc13)O2 [Compound 717, 1-[(2Z)-2-({7-fluoro-5-methoxy-2-[1-(2-methylpropyl)-1H-pyrazol-4-yl]-1H-indol-3-yl}methylidene)-3-oxo-2,3-dihydro-1-benzofuran-5-yl]-3-methylurea] | –
4 | 21 | 125 | CCn1c(C)c(/C=C2\Oc3ccc(NC(=O)Nc4ccc(N(C)CCCN(C)C)cc4)cc3C2=O)c2cc(OC)ccc21 [Compound 653, 1-(4-{[3-(dimethylamino)propyl](methyl)amino}phenyl)-3-{(2Z)-2-[(1-ethyl-5-methoxy-2-methyl-1H-indol-3-yl)methylene]-3-oxo-2,3-dihydro-1-benzofuran-5-yl}urea] | –
1380 | 9500 | 10300 | COc1ccc2c(c1)c(/C=C1\Oc3cc(N)ccc3C1=O)cn2CCCN(C)C [Example 418, (2Z)-6-amino-2-({1-[3-(dimethylamino)propyl]-5-methoxy-1H-indol-3-yl}methylene)-1-benzofuran-3(2H)-one] | –
10.5 | 180 | 27 | CNCCn1c(-c2c(C)nn(C)c2C)c(/C=C2\Oc3ccc(NC(=O)NC)cc3C2=O)c2cc(OC)ccc21 [Compound 672, 1-[(2Z)-2-({5-methoxy-1-[2-(methylamino)ethyl]-2-(1,3,5-trimethyl-1H-pyrazol-4-yl)-1H-indol-3-yl}methylidene)-3-oxo-2,3-dihydro-1-benzofuran-5-yl]-3-methylurea] | –
116 | 3930 | > 800 | COc1ccc2c(c1)c(/C=C1\Oc3cc(O)c(F)cc3C1=O)c(C)n2CCCN(C)C [Example 352, (2Z)-2-({1-[3-(Dimethylamino)propyl]-5-methoxy-2-methyl-1H-indol-3-yl}methylene)-5-fluoro-6-hydroxy-1-benzofuran-3(2H)-one] | –
2710 | 11000 | 140 | Cn1c(-c2cccnc2)c(C=C2Oc3cc(O)cc(O)c3C2=O)c2ccccc21 [Example 189, 4,6-dihydroxy-2-[(1-methyl-2-pyridin-3-yl-1H-indol-3-yl)methylene]-1-benzofuran-3(2H)-one] | –
3 | 14.5 | 130 | CCn1c(C)c(/C=C2\Oc3ccc(NC(=O)Nc4ccc(NCCN(C)C)cc4)cc3C2=O)c2cc(OC)ccc21 [Compound 678, 1-(4-{[2-(dimethylamino)ethyl]amino}phenyl)-3-{(2Z)-2-[(1-ethyl-5-methoxy-2-methyl-1H-indol-3-yl)methylidene]-3-oxo-2,3-dihydro-1-benzofuran-5-yl}urea] | –
4 | 95 | 155 | CCn1c(C)c(/C=C2\Oc3ccc(NC(=O)Nc4ccc(N(C)C(=O)CCN(C)C)cc4)cc3C2=O)c2cc(OC)ccc21 [Compound 694, N-{4-[({(2Z)-2-[(1-ethyl-5-methoxy-2-methyl-1H-indol-3-yl)methylidene]-3-oxo-2,3-dihydro-1-benzofuran-5-yl}carbamoyl)amino]phenyl}-N,N3,N3-trimethyl-b-alaninamide] | –
47 | 248 | 43 | CNC(=O)Nc1ccc2c(c1)C(=O)/C(=C/c1c(-c3c(C)nn(CCOC)c3C)[nH]c3ccc(OC)cc13)O2 [Compound 709, 1-[(2Z)-2-({5-methoxy-2-[1-(2-methoxyethyl)-3,5-dimethyl-1H-pyrazol-4-yl]-1H-indol-3-yl}methylidene)-3-oxo-2,3-dihydro-1-benzofuran-5-yl]-3-methylurea] | –
67.5 | 3130 | 500 | COc1ccc2c(c1)c(/C=C1\Oc3cc(O)cc(Br)c3C1=O)c(C)n2CCN1CCN(C)CC1 [Example 429, (2Z)-4-Bromo-6-hydroxy-2-({5-methoxy-2-methyl-1-[2-(4-methylpiperazin-1-yl)ethyl]-1H-indol-3-yl}methylene)-1-benzofuran-3(2H)-one] | –
13.5 | 1450 | 37.5 | COc1ccc2c(c1)c(/C=C1\Oc3cc(O)cc(C)c3C1=O)c(C1CC1)n2CCN1CCN(C)CC1 [Example 464, (2Z)-2-({2-Cyclopropyl-5-methoxy-1-[2-(4-methylpiperazin-1-yl)ethyl]-1H-indol-3-yl}methylene)-6-hydroxy-4-methyl-1-benzofuran-3(2H)-one] | –
1640 | 7710 | 123 | Cn1cc(/C=C2\Oc3cc(O)cc(O)c3C2=O)c2c(-c3cnn(CCN4CCOCC4)c3)cccc21 [Example 403, (2Z)-4,6-Dihydroxy-2-({1-methyl-4-[1-(2-morpholin-4-ylethyl)-1H-pyrazol-4-yl]-1H-indol-3-yl}methylene)-1-benzofuran-3(2H)-one] | –
4020 | > 10000 | > 20000 | COc1ccc2c(c1)c(/C=C1\Oc3cc(CO)ccc3C1=O)cn2CCCN(C)C [Example 424, (2Z)-2-({1-[3-(dimethylamino)propyl]-5-methoxy-1H-indol-3-yl}methylene)-6-(hydroxymethyl)-1-benzofuran-3(2H)-one] | –
4770 | > 10000 | 300 | Cn1cc(/C=C2\Oc3cc(O)cc(O)c3C2=O)c2c(-c3ccncc3)cccc21 [Example 373, (2Z)-4,6-Dihydroxy-2-[(1-methyl-4-pyridin-4-yl-1H-indol-3-yl)methylene]-1-benzofuran-3(2H)-one] | –
698 | 1280 | 123 | Cn1cc(/C=C2\Oc3cc(O)cc(O)c3C2=O)c2c(-c3ccc(F)cc3)cccc21 [Example 364, (2Z)-2-{[4-(4-Fluorophenyl)-1-methyl-1H-indol-3-yl]methylene}-4,6-dihydroxy-1-benzofuran-3(2H)-one] | –
1.9 | 246 | 58 | COc1ccc2c(c1)c(/C=C1\Oc3ccc(NC(=O)Nc4cccnc4)cc3C1=O)c(C)n2CCN1CCN(C)CC1 [Compound 617, 1-[(2Z)-2-({5-methoxy-2-methyl-1-[2-(4-methylpiperazin-1-yl)ethyl]-1H-indol-3-yl}methylidene)-3-oxo-2,3-dihydro-1-benzofuran-5-yl]-3-pyridin-3-ylurea] | –
19.5 | 1060 | 12500 | COc1ccc2c(c1)c(/C=C1\Oc3cc(O)ccc3C1=O)c(C)n2CCCN1CCCC1C (stereo not drawn) [Example 461, (2Z)-6-Hydroxy-2-({5-methoxy-2-methyl-1-[3-(2-methylpyrrolidin-1-yl)propyl]-1H-indol-3-yl}methylene)-1-benzofuran-3(2H)-one] | –
0.3 | 2.5 | 3 | COc1ccc2[nH]c(-c3c(C)nn(C)c3C)c(/C=C3\Oc4ccc(NC(=O)Nc5ccc(C(=O)N6CCN(C)C(C)C6)cc5)cc4C3=O)c2c1 (stereo not drawn) [Compound 703, 1-{4-[(3,4-dimethylpiperazin-1-yl)carbonyl]phenyl}-3-[(2Z)-2-{[5-methoxy-2-(1,3,5-trimethyl-1H-pyrazol-4-yl)-1H-indol-3-yl]methylidene}-3-oxo-2,3-dihydro-1-benzofuran-5-yl]urea] | –
738 | 3000 | 26 | CC(=O)c1ccc(-c2cccc3c2c(/C=C2\Oc4cc(O)cc(O)c4C2=O)cn3C)cc1 [Example 372, (2Z)-2-{[4-(4-Acetylphenyl)-1-methyl-1H-indol-3-yl]methylene}-4,6-dihydroxy-1-benzofuran-3(2H)-one] | –
0.95 | 8 | 2600 | CCn1cc(/C=C2\Oc3ccc(NC(=O)Nc4ccc(C(=O)N5CCN(C)CC5)cc4)cc3C2=O)c2cc(OC)ccc21 [Compound 642, 1-{(2Z)-2-[(1-ethyl-5-methoxy-1H-indol-3-yl)methylene]-3-oxo-2,3-dihydro-1-benzofuran-5-yl}-3-{4-[(4-methylpiperazin-1-yl)carbonyl]phenyl}urea] | –
2810 | 9500 | 28 | Cn1cc(/C=C2\Oc3cc(O)cc(O)c3C2=O)c2c(-c3cccnc3)cccc21 [Example 375, (2Z)-4,6-Dihydroxy-2-[(1-methyl-4-pyridin-3-yl-1H-indol-3-yl)methylene]-1-benzofuran-3(2H)-one] | –
55 | 281 | 1850 | COc1ccc2[nH]cc(/C=C3\Oc4cc(O)ccc4C3=O)c2c1 [Example 414, (2Z)-6-Hydroxy-2-[(5-methoxy-1H-indol-3-yl)methylene]-1-benzofuran-3(2H)-one] | –

Compound | IC50 (PI3K-alpha; read-out: PI3Kα Avg. IC50) [nM] | IC50 (PI3K-gamma) [nM] | IC50 (human TOR) [nM] | IC50 (PI3K-alpha; PI3Kα Avg. IC50) [nM]
O=C1/C(=C/c2c(-c3ccc4ccccc4c3)[nH]c3ccccc23)Oc2cc(O)cc(O)c21 [Example 45, (2Z)-4,6-dihydroxy-2-{[2-(2-naphthyl)-1H-indol-3-yl]methylene}-1-benzofuran-3(2H)-one] | – | 1820 | 280 | 799
